How the values were obtained:
Assay in all cases: relative viability (nuclei count vs DMSO), 5 days (fraction); higher = more cells survive
Selisistat + Linsitinib = compound: C1CC(C2=C(C1)C3=C(N2)C=CC(=C3)Cl)C(=O)N [Selisistat] + C[C@]1(O)C[C@@H](c2nc(-c3ccc4ccc(-c5ccccc5)nc4c3)c3c(N)nccn32)C1 [Linsitinib] (partner 1 µM)
Procedure, shortened: (§1)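 Relative viability divides the nuclei count in treated wells by that in vehicle wells. Lung cancer cell lines were seeded in 1536-well plates, dosed by pin tool the next day, and fixed and stained after 5 days in one step with final 0.05% Triton X-100, 1% formaldehyde and 1 ug/ml Hoechst. Dosing was a single drug or a fixed anchor-drug dose plus five library-drug doses (not always all listed) in √10 steps, and values are medians of duplicate plates imaged at 4×.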

Serdemetan + Bortezomib = compound: c1ccc2c(CCNc3ccc(Nc4ccncc4)cc3)c[nH]c2c1 [Serdemetan] + CC(C)C[C@H](NC(=O)[C@H](Cc1ccccc1)NC(=O)c1cnccn1)B(O)O [Bortezomib] (partner 0.002 µM)
Procedure, shortened: as §1

Serdemetan + Foretinib = compound: c1ccc2c(CCNc3ccc(Nc4ccncc4)cc3)c[nH]c2c1 [Serdemetan] + COc1cc2c(Oc3ccc(NC(=O)C4(C(=O)Nc5ccc(F)cc5)CC4)cc3F)ccnc2cc1OCCCN1CCOCC1 [Foretinib] (partner 0.25 µM)
Procedure, shortened: as §1

Serdemetan + OSI-027 = compound: c1ccc2c(CCNc3ccc(Nc4ccncc4)cc3)c[nH]c2c1 [Serdemetan] + COc1cccc2cc(-c3nc([C@H]4CC[C@H](C(=O)O)CC4)n4ncnc(N)c34)[nH]c12 [OSI-027] (partner 0.5 µM)
Procedure, shortened: as §1

Question: What does the source list for UMC-11?
Answer: relative viability (Selisistat + Linsitinib; first compound 0.4 µM): 0.962; relative viability (Selisistat + Linsitinib; first compound 1.265 µM): 0.935; relative viability (Selisistat + Linsitinib; first compound 4 µM): 1.06; relative viability (Selisistat + Linsitinib; first compound 12.65 µM): 0.948; relative viability (Selisistat + Linsitinib; first compound 40 µM): 1.03; relative viability (Serdemetan + Bortezomib; first compound 0.04 µM): 0.614; relative viability (Serdemetan + Bortezomib; first compound 0.1265 µM): 0.666; relative viability (Serdemetan + Bortezomib; first compound 0.4 µM): 0.668; relative viability (Serdemetan + Bortezomib; first compound 1.265 µM): 0.53; relative viability (Serdemetan + Bortezomib; first compound 4 µM): 0.839; relative viability (Serdemetan + Foretinib; first compound 0.04 µM): 0.919; relative viability (Serdemetan + Foretinib; first compound 0.1265 µM): 1.02; relative viability (Serdemetan + Foretinib; first compound 4 µM): 0.828; relative viability (Serdemetan + OSI-027; first compound 0.04 µM): 0.563; relative viability (Serdemetan + OSI-027; first compound 0.1265 µM): 0.485; relative viability (Serdemetan + OSI-027; first compound 4 µM): 0.428

Source: the supplement of paper PMC10307832
